In patent US7902184B2, “Piperazinyl pyrimidine derivatives” (Hoffmann-La Roche Inc., priority 2006, dated 2011):

These compounds were tested against T1, histamine 3 receptor (H3R) (Homo sapiens, UniProt Q9Y5N1) (assay: Binding assay with 3H-(R)α-methylhistamine (competition binding, H3R-CHO membranes)). Conditions: membrane of the human H3R-CHO cell line; 3H(R)α-methylhistamine 1 nM; Ki calculated from IC50 by Cheng-Prusoff.
T1 construct: expressed in transfected cells; host or cells: CHO cells (membranes)
T1 sequence (Q9Y5N1 whole entry): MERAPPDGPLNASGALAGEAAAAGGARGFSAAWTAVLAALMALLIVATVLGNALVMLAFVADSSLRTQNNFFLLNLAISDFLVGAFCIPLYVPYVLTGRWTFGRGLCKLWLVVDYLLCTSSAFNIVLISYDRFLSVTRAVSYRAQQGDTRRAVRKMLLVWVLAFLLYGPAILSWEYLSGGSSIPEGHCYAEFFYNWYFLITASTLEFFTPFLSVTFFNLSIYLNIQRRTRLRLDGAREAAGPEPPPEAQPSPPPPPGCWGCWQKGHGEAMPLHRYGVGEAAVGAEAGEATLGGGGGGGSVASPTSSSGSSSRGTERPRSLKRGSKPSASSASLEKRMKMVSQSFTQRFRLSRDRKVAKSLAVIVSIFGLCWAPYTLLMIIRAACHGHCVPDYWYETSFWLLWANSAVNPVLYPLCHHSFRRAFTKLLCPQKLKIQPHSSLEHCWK
Experimental: Binding Assay with ^3H—(R)α-methylhistamine
Saturation binding experiments were performed using HR3-CHO membranes prepared as described in Takahashi, K, Tokita, S., Kotani, H. (2003) J. Pharmacol. Exp. Therapeutics 307, 213-218.
An appropriate amount of membrane (60 to 80 μg protein/well) was incubated with increasing concentrations of ^3H(R)α-methylhistamine di-hydrochloride (0.10 to 10 nM). Non specific binding was determined using a 200 fold excess of cold (R)α-methylhistamine dihydrobromide (500 nM final concentration). The incubation was carried out at room temperature (in deep-well plates shaking for three hours). The final volume in each well was 250 μl. The incubation was followed by rapid filtration on GF/B filters (pre-soaked with 100 μl of 0.5% PEI in Tris 50 mM shaking at 200 rpm for two hours). The filtration was made using a cell-harvester and the filter plates were then washed five times with ice cold washing buffer containing 0.5 M NaCl. After harvesting, the plates were dried at 55° C. for 60 min, then scintillation fluid (Microscint 40, 40 microl in each well) was added and the amount of radioactivity on the filter was determined in Packard top-counter after shaking the plates for two hours at 200 rpm at room temperature.
Binding Buffer: 50 mM Tris-HCl pH 7.4 and 5 mM MgCl2×6H2O pH 7.4. Washing Buffer: 50 mM Tris-HCl pH 7.4 and 5 mM MgCl2×6H2O and 0.5 M NaCl pH 7.4.
Indirect measurement of affinity of H3R inverse agonists: twelve increasing concentrations (ranging from 10 μM to 0.3 nM) of the selected compounds were always tested in competition binding experiments using membrane of the human H3R-CHO cell line. […]
All compounds were tested at a single concentration in duplicate. […] Ki's were calculated from IC50 based on Cheng-Prusoff equation (Cheng, Y, Prusoff, W H (1973) Biochem Pharmacol 22, 3099-3108): Ki=IC50/[1+D/Kd] wherein D is the concentration of the radioligand and Kd is the binding constant for the radioligand binding to the receptor and the conditions used in the competition experiment.
For `CC1CC(C)CN(C(=O)Nc2cc(N3CCN(C4CCCCC4)CC3)ncn2)C1` (stereo not drawn) [Example 93, 3,5-Dimethyl-piperidine-1-carboxylic acid [6-(4-cyclohexyl-piperazin-1-yl)-pyrimidin-4-yl]-amide], the Ki was 22.2 nM.
`O=C(Nc1ccnc(N2CCN(C3CCCC3)CC2)n1)N1CCCCCC1` [Example 6, azepane-1-carboxylic acid [2-(4-cyclopentyl-piperazin-1-yl)-pyrimidin-4-yl]-amide] showed a Ki of 51 nM.
For `CC(C)N1CCN(c2cc(NC(=O)N3CCCCC3)ncn2)CC1` [Example 54, piperidine-1-carboxylic acid [6-(4-isopropyl-piperazin-1-yl)-pyrimidin-4-yl]-amide], the Ki was 34.6 nM.
